One test relates to BaF3-EGFR (WT) cells. Briefly: Inhibitory activity on Ba/F3 cell proliferation (CellTiter-Glo, 72 hours). Conditions: Ba/F3 cells expressing EGFR WT. The test is classed as cell-based. The essentials:
(§1)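 Ba/F3 cells expressing wild-type EGFR or EGFR Del19/T790M/C797S, 3×10^3 per well, exposed 72 h at 37 °C to compound at 12 threefold dilutions, 0.00005-10 μM final. Viability by CellTiter-Glo 2.0; GI50 derived from growth relative to DMSO-treated cells.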
In general terms: ATP-based viability assays read luminescence as a measure of living cells.

Test [1] has as its system BaF3-EGFR (Del19/T790M/C797S) cells. Described as above. The test is classed as cell-based. Conditions: Ba/F3 cells expressing EGFR Del19/T790M/C797S. An outline of the steps:
as §1

The next test addresses EGFR Del19/T790M/C797S (Homo sapiens, UniProt P00533, C797S/T790M, form not given). Briefly: Enzyme IC50, EGFR Del19/T790M/C797S. It is filed as biochemical.

Our source for the GI50 and IC50 values is patent US20240067668A1, “HETEROARYL DERIVATIVE COMPOUND AND USE THEREOF” (VORONOI INC., priority 2020, published 2024).

EGFR Del19/T790M/C797S, sequence (P00533 25-1210 T790M/C797S, form open): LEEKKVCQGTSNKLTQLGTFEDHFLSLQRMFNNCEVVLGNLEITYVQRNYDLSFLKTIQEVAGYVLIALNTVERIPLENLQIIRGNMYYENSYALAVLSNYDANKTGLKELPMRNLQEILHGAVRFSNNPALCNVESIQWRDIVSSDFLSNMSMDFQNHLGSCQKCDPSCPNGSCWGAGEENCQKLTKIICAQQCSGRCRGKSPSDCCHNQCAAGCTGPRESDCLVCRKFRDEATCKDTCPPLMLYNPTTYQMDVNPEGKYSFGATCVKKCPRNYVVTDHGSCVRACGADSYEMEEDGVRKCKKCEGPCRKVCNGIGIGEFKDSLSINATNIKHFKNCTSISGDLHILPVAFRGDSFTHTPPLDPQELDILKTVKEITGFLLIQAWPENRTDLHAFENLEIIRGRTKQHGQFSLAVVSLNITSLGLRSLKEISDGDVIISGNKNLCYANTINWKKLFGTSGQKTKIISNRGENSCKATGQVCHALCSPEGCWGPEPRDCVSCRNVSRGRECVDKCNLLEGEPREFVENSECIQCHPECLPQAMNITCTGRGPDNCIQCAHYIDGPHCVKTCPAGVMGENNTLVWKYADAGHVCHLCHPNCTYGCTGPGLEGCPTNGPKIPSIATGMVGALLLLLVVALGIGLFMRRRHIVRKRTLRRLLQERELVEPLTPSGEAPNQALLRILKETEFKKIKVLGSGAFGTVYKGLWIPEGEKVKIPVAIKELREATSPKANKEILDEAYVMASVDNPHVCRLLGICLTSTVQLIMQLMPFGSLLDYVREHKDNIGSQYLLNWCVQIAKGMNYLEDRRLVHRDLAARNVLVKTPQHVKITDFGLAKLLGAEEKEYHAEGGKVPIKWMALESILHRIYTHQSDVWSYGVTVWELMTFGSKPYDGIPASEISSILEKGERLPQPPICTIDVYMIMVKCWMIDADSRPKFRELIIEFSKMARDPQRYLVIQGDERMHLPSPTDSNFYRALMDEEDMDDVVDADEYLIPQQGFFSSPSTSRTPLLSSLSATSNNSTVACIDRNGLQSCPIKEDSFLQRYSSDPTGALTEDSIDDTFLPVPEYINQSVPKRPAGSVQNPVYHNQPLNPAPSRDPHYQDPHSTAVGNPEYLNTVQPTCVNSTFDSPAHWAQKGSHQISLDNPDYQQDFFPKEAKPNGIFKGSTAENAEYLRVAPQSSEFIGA

For orientation: GI50 means the concentration at which growth is held to half of that of the control. One may read the IC50 as the midpoint of a concentration-inhibition curve. As for `COc1cc(N2CCC3(CCN(C(=O)C4(F)CC4)CC3)CC2)c(-c2cnn(C)c2)cc1Nc1nc(Nc2ccc3nccnc3c2P(C)(C)=O)c2cc[nH]c2n1` [Example 111, (9-(4-((4-((5-(dimethyl-phosphoryl)quinoxalin-6-yl)amino)-7H-pyrrolo[2,3-d]pyrimidin-2-yl)amino)-5-methoxy-2-(1-methyl-1H-pyrazol-4-yl)phenyl)-3,9-diazaspiro[5.5]undecan-3-yl)(1-fluorocyclo-propyl) methanone], the values for the GI50 (in the test with BaF3-EGFR (WT) cells; in test [1]) were over 0.1 µM and at most 0.05 µM, respectively. Besides, on EGFR Del19/T790M/C797S, the IC50 is over 0.1 µM.
As for `COc1cc(N2CCN(C(=O)C3(F)CC3)CC2)c(-c2cnn(C)c2)cc1Nc1nc(Nc2ccc3nccnc3c2P(C)(C)=O)c2cc[nH]c2n1` [Example 112, (4-(4-((4-((5-(dimethyl-phosphoryl)quinoxalin-6-yl)amino)-7H-pyrrolo[2,3-d]pyrimidin-2-yl)amino)-5-methoxy-2-(1-methyl-1H-pyrazol-4-yl)phenyl)piperazin-1-yl)(1-fluorocyclo-propyl) methanone], the GI50 with BaF3-EGFR (WT) cells was over 0.1 µM; in test [1], at most 0.05 µM. Besides, the concentration for half-maximal inhibition (IC50) at EGFR Del19/T790M/C797S was in the range of 0.05 to 0.1 µM.
On to `COc1cc(N2CCN(CC3(F)CC3)CC2)c(-c2cnn(C)c2)cc1Nc1nc(Nc2ccc3nccnc3c2P(C)(C)=O)c2cc[nH]c2n1` [Example 113, (6-((2-((4-(4-((1-fluorocyclo-propyl)methyl)piperazin-1-yl)-2-methoxy-5-(1-methyl-1H-pyrazol-4-yl)phenyl)amino)-7H-pyrrolo[2,3-d]pyrimidin-4-yl)amino)quinoxalin-5-yl)dimethyl-phosphine oxide], for which the GI50 in the test with BaF3-EGFR (WT) cells was over 0.1 µM; in test [1], at most 0.05 µM. This molecule also displayed an IC50 against EGFR Del19/T790M/C797S of at most 0.05 µM.
As to `COc1cc(N2CCC3(CCN(CC4(F)CC4)CC3)CC2)c(-c2cnn(C)c2)cc1Nc1nc(Nc2ccc3nccnc3c2P(C)(C)=O)c2cc[nH]c2n1` [Example 114, (6-((2-((4-(9-((1-fluorocyclo-propyl)methyl)-3,9-diazaspiro[5.5]undecan-3-yl)-2-methoxy-5-(1-methyl-1H-pyrazol-4-yl)phenyl)amino)-7H-pyrrolo[2,3-d]pyrimidin-4-yl)amino)quinoxalin-5-yl)dimethyl-phosphine oxide], the concentration for 50% growth inhibition (GI50) with BaF3-EGFR (WT) cells was over 0.1 µM; in test [1], at most 0.05 µM. Also, the 50% inhibitory concentration (IC50) on EGFR Del19/T790M/C797S was at most 0.05 µM.
In the case of `COc1cc(N2CCN(C)CC2)c(-c2cnn(C3CC3)c2)cc1Nc1nc(Nc2ccc3nccnc3c2P(C)(C)=O)c2cc[nH]c2n1` [Example 115, (6-((2-((5-(1-cyclopropyl-1H-pyrazol-4-yl)-2-methoxy-4-(4-methylpiperazin-1-yl)phenyl)amino)-7H-pyrrolo[2,3-d]pyrimidin-4-yl)amino)quinoxalin-5-yl)dimethyl-phosphine oxide], the 50% growth inhibitory concentration (GI50) with BaF3-EGFR (WT) cells was over 0.1 µM; in test [1], 0.05 to 0.1 µM. The same molecule had an IC50 at EGFR Del19/T790M/C797S of at most 0.05 µM.
As for `CN1CCN(c2c(-c3cnn(C)c3)cc(Nc3nc(Nc4ccc5nccnc5c4P(C)(C)=O)c4cc[nH]c4n3)c3c2CCO3)CC1` [Example 116, dimethyl (6-((2-((5-(1-methyl-1H-pyrazol-4-yl)-4-(4-methyl-piperazin-1-yl)-2,3-dihydrobenzo-furan-7-yl)amino)-7H-pyrrolo[2,3-d]pyrimidin-4-yl)amino)quinoxalin-5-yl)phosphine oxide], the GI50 is over 0.1 µM in the test on BaF3-EGFR (WT) cells and at most 0.05 µM in test [1]. Also, the 50% inhibitory concentration (IC50) against EGFR Del19/T790M/C797S was at most 0.05 µM.
With `CN1CCN(C2CCN(c3c(-c4cnn(C)c4)cc(Nc4nc(Nc5ccc6nccnc6c5P(C)(C)=O)c5cc[nH]c5n4)c4c3CCO4)CC2)CC1` [Example 117, dimethyl (6-((2-((5-(1-methyl-1H-pyrazol-4-yl)-4-(4-(4-methylpiperazin-1-yl)piperidin-1-yl)-2,3-dihydrobenzo-furan-7-yl)amino)-7H-pyrrolo[2,3-d]pyrimidin-4-yl)amino)quinoxalin-5-yl)phosphine oxide], the 50% growth inhibitory concentration (GI50) in the test with BaF3-EGFR (WT) cells was over 0.1 µM; in test [1], at most 0.05 µM. In addition, on EGFR Del19/T790M/C797S, the IC50 is at most 0.05 µM.
Regarding `Cn1cc(-c2cc(Nc3nc(Nc4ccc5nccnc5c4P(C)(C)=O)c4cc[nH]c4n3)c3c(c2N2CCC(N4CCOCC4)CC2)CCO3)cn1` [Example 120, dimethyl (6-((2-((5-(1-methyl-1H-pyrazol-4-yl)-4-(4-morpholino-piperidin-1-yl)-2,3-dihydrobenzo-furan-7-yl)amino)-7H-pyrrolo[2,3-d]pyrimidin-4-yl)amino)quinoxalin-5-yl)phosphine oxide], the GI50 with BaF3-EGFR (WT) cells is 0.05 to 0.1 µM; in test [1], at most 0.05 µM. Besides, the IC50 against EGFR Del19/T790M/C797S is at most 0.05 µM.
For the molecule `Cc1cc(Nc2nc(Nc3ccc4nccnc4c3P(C)(C)=O)c3cc[nH]c3n2)c2c(c1N1CCOCC1)CCO2` [Example 122, dimethyl (6-((2-((5-methyl-4-morpholino-2,3-dihydrobenzo-furan-7-yl)amino)-7H-pyrrolo[2,3-d]pyrimidin-4-yl)amino)quinoxalin-5-yl)phosphine oxide], the GI50 (with BaF3-EGFR (WT) cells; in test [1]) was over 0.1 µM throughout. Besides, the IC50 against EGFR Del19/T790M/C797S was at most 0.05 µM.
Regarding `Cn1nccc1-c1ccc(Nc2nc(Nc3ccc4nccnc4c3P(C)(C)=O)c3cc[nH]c3n2)c2c1OCCO2` [Example 131, dimethyl (6-((2-((8-(1-methyl-1H-pyrazol-5-yl)-2,3-dihydrobenzo [b][1,4]dioxin-5-yl)amino)-7H-pyrrolo[2,3-d]pyrimidin-4-yl)amino)quinoxalin-5-yl)phosphine oxide], the GI50 (with BaF3-EGFR (WT) cells; in test [1]) was over 0.1 µM throughout. For the same molecule, at EGFR Del19/T790M/C797S, the IC50 was over 0.1 µM.
`C=CC(=O)Nc1cc(Nc2nc(Nc3ccc4nccnc4c3P(C)(C)=O)c3cc[nH]c3n2)c2c(c1N1CCC(N3CCN(C4CC4)CC3)CC1)OCCO2` [Example 133, N-(5-(4-(4-cyclopropyl-piperazin-1-yl)piperidin-1-yl)-8-((4-((5-(dimethyl-phosphoryl)quinoxalin-6-yl)amino)-7H-pyrrolo[2,3-d]pyrimidin-2-yl)amino)-2,3-dihydrobenzo [b][1,4]dioxin-6-yl)acrylamide]: the GI50 in the test with BaF3-EGFR (WT) cells was at most 0.05 µM; in test [1], over 0.1 µM. At EGFR Del19/T790M/C797S, this molecule had an IC50 of at most 0.05 µM.
For the molecule `CP(C)(=O)c1c(Nc2nc(Nc3cc([N+](=O)[O-])c(N4CCC(N5CCN(C6CC6)CC5)CC4)c4c3OCCO4)nc3[nH]ccc23)ccc2nccnc12` [Example 134, (6-((2-((8-(4-(4-cyclopropyl-piperazin-1-yl)piperidin-1-yl)-7-nitro-2,3-dihydrobenzo [b][1,4]dioxin-5-yl)amino)-7H-pyrrolo[2,3-d]pyrimidin-4-yl)amino)quinoxalin-5-yl)dimethyl-phosphine oxide], the results for the GI50 (in the test on BaF3-EGFR (WT) cells; in test [1]) were 0.05 to 0.1 µM and over 0.1 µM, respectively. For the same molecule, the IC50 against EGFR Del19/T790M/C797S was at most 0.05 µM.
Taken in the same sequence, the figures for `Cn1cc(-c2cc(N3CCOCC3)c3c(c2Nc2nc(Nc4ccc5nccnc5c4P(C)(C)=O)c4cc[nH]c4n2)OCCO3)cn1` [Example 135, dimethyl (6-((2-((6-(1-methyl-1H-pyrazol-4-yl)-8-morpholino-2,3-dihydrobenzo [b][1,4]dioxin-5-yl)amino)-7H-pyrrolo[2,3-d]pyrimidin-4-yl)amino)quinoxalin-5-yl)phosphine oxide] were over 0.1 µM, over 0.1 µM and over 0.1 µM.
